# Experimental data from patent publication US9617602B2, “Methods and compositions for determining resistance to androgen receptor therapy” (Aragon Pharmaceuticals, Inc., priority 2012, dated 2017).
# Test system: LNCaP/AR(cs) cells
# Assay: Endogenous gene transcriptional assay (real-time PCR of androgen responsive genes)
# Format: cell-based, human
# [1] = Table 4A, 1 nM R1881 or 30 μM compound, vehicle=1.00
structure (smiles),measurement,setting,value
CNC(=O)c1ccc(N2C(=S)N(c3cnc(C#N)c(C(F)(F)F)c3)C(=O)C23CCC3)cc1F [ARN-509],"AMIGO2 expression, antagonist transcription","+1 nM R1881, 0.3 μM",0.30
same,"BDNF expression, antagonist transcription","+1 nM R1881, 0.3 μM",0.43
same,"CAM2KN1 expression, antagonist transcription","+1 nM R1881, 0.3 μM",0.04
same,"FASN expression, antagonist transcription","+1 nM R1881, 0.3 μM",1.92
same,"FKBP5 expression, antagonist transcription","+1 nM R1881, 0.3 μM",33.14
same,"HPGD expression, antagonist transcription","+1 nM R1881, 0.3 μM",105.97
same,"NCAPD3 expression, antagonist transcription","+1 nM R1881, 0.3 μM",43.93
same,"NKX3.1 expression, antagonist transcription","+1 nM R1881, 0.3 μM",8.32
same,"NOV expression, antagonist transcription","+1 nM R1881, 0.3 μM",0.03
same,"ORM1 expression, antagonist transcription","+1 nM R1881, 0.3 μM",5100.90
same,"PLD1 expression, antagonist transcription","+1 nM R1881, 0.3 μM",0.02
same,"PSA expression, antagonist transcription","+1 nM R1881, 0.3 μM",19.09
same,"SLUG expression, antagonist transcription","+1 nM R1881, 0.3 μM",71.33
same,"STEAP4 expression, antagonist transcription","+1 nM R1881, 0.3 μM",1019.98
same,"TMPRSS2 expression, antagonist transcription","+1 nM R1881, 0.3 μM",19.07
same,"AMIGO2 expression, antagonist transcription","+1 nM R1881, 1 μM",0.31
same,"BDNF expression, antagonist transcription","+1 nM R1881, 1 μM",0.35
same,"CAM2KN1 expression, antagonist transcription","+1 nM R1881, 1 μM",0.06
same,"FASN expression, antagonist transcription","+1 nM R1881, 1 μM",1.52
same,"FKBP5 expression, antagonist transcription","+1 nM R1881, 1 μM",22.49
same,"HPGD expression, antagonist transcription","+1 nM R1881, 1 μM",76.25
same,"NCAPD3 expression, antagonist transcription","+1 nM R1881, 1 μM",32.00
same,"NKX3.1 expression, antagonist transcription","+1 nM R1881, 1 μM",9.92
same,"NOV expression, antagonist transcription","+1 nM R1881, 1 μM",0.09
same,"ORM1 expression, antagonist transcription","+1 nM R1881, 1 μM",2679.73
same,"PLD1 expression, antagonist transcription","+1 nM R1881, 1 μM",0.02
same,"PSA expression, antagonist transcription","+1 nM R1881, 1 μM",21.75
same,"SLUG expression, antagonist transcription","+1 nM R1881, 1 μM",62.00
same,"STEAP4 expression, antagonist transcription","+1 nM R1881, 1 μM",742.61
same,"TMPRSS2 expression, antagonist transcription","+1 nM R1881, 1 μM",24.11
same,"AMIGO2 expression, antagonist transcription","+1 nM R1881, 3 μM",0.52
same,"BDNF expression, antagonist transcription","+1 nM R1881, 3 μM",0.67
same,"CAM2KN1 expression, antagonist transcription","+1 nM R1881, 3 μM",0.19
same,"FASN expression, antagonist transcription","+1 nM R1881, 3 μM",1.08
same,"FKBP5 expression, antagonist transcription","+1 nM R1881, 3 μM",12.56
same,"HPGD expression, antagonist transcription","+1 nM R1881, 3 μM",32.19
same,"NCAPD3 expression, antagonist transcription","+1 nM R1881, 3 μM",15.57
same,"NKX3.1 expression, antagonist transcription","+1 nM R1881, 3 μM",12.01
same,"NOV expression, antagonist transcription","+1 nM R1881, 3 μM",0.31
same,"ORM1 expression, antagonist transcription","+1 nM R1881, 3 μM",1031.40
same,"PLD1 expression, antagonist transcription","+1 nM R1881, 3 μM",0.04
same,"PSA expression, antagonist transcription","+1 nM R1881, 3 μM",23.57
same,"SLUG expression, antagonist transcription","+1 nM R1881, 3 μM",50.70
same,"STEAP4 expression, antagonist transcription","+1 nM R1881, 3 μM",256.89
same,"TMPRSS2 expression, antagonist transcription","+1 nM R1881, 3 μM",23.38
same,"AMIGO2 expression, antagonist transcription","+1 nM R1881, 10 μM",0.60
same,"BDNF expression, antagonist transcription","+1 nM R1881, 10 μM",0.74
same,"CAM2KN1 expression, antagonist transcription","+1 nM R1881, 10 μM",0.43
same,"FASN expression, antagonist transcription","+1 nM R1881, 10 μM",0.60
same,"FKBP5 expression, antagonist transcription","+1 nM R1881, 10 μM",2.74
same,"HPGD expression, antagonist transcription","+1 nM R1881, 10 μM",8.36
same,"NCAPD3 expression, antagonist transcription","+1 nM R1881, 10 μM",2.39
same,"NKX3.1 expression, antagonist transcription","+1 nM R1881, 10 μM",7.22
same,"NOV expression, antagonist transcription","+1 nM R1881, 10 μM",0.86
same,"ORM1 expression, antagonist transcription","+1 nM R1881, 10 μM",156.90
same,"PLD1 expression, antagonist transcription","+1 nM R1881, 10 μM",0.11
same,"PSA expression, antagonist transcription","+1 nM R1881, 10 μM",12.90
same,"SLUG expression, antagonist transcription","+1 nM R1881, 10 μM",11.15
same,"STEAP4 expression, antagonist transcription","+1 nM R1881, 10 μM",32.98
same,"TMPRSS2 expression, antagonist transcription","+1 nM R1881, 10 μM",11.45
same,"AMIGO2 expression, antagonist transcription","+1 nM R1881, 30 μM",0.76
same,"BDNF expression, antagonist transcription","+1 nM R1881, 30 μM",0.88
same,"CAM2KN1 expression, antagonist transcription","+1 nM R1881, 30 μM",0.42
same,"FASN expression, antagonist transcription","+1 nM R1881, 30 μM",0.64
same,"FKBP5 expression, antagonist transcription","+1 nM R1881, 30 μM",1.08
same,"HPGD expression, antagonist transcription","+1 nM R1881, 30 μM",2.78
same,"NCAPD3 expression, antagonist transcription","+1 nM R1881, 30 μM",0.96
same,"NKX3.1 expression, antagonist transcription","+1 nM R1881, 30 μM",5.49
same,"NOV expression, antagonist transcription","+1 nM R1881, 30 μM",0.82
same,"ORM1 expression, antagonist transcription","+1 nM R1881, 30 μM",16.42
same,"PLD1 expression, antagonist transcription","+1 nM R1881, 30 μM",0.32
same,"PSA expression, antagonist transcription","+1 nM R1881, 30 μM",7.20
same,"SLUG expression, antagonist transcription","+1 nM R1881, 30 μM",5.49
same,"STEAP4 expression, antagonist transcription","+1 nM R1881, 30 μM",6.86
same,"TMPRSS2 expression, antagonist transcription","+1 nM R1881, 30 μM",5.94
same,AMIGO2 gene expression,[1],0.72
same,BDNF gene expression,[1],0.85
same,CAM2KN1 gene expression,[1],0.80
same,FASN gene expression,[1],0.75
same,FKBP5 gene expression,[1],0.99
same,HPGD gene expression,[1],1.18
same,NCAPD3 gene expression,[1],0.91
same,NKX3.1 gene expression,[1],1.13
same,NOV gene expression,[1],1.04
same,ORM1 gene expression,[1],0.84
same,PLD1 gene expression,[1],1.04
same,PSA gene expression,[1],1.43
same,SLUG gene expression,[1],1.03
same,STEAP4 gene expression,[1],0.90
same,TMPRSS2 gene expression,[1],1.06
same,"AMIGO2 expression, agonist transcription","−R1881, 0.3 μM",1.14
same,"BDNF expression, agonist transcription","−R1881, 0.3 μM",1.15
